# Laboratory results as given in ChEMBL document CHEMBL6109121, “Discovery of Novel Sulfonylurea NLRP3 Inflammasome Inhibitor for the Treatment of Multiple Inflammatory Diseases” (J Med Chem, 2025).
# The source made the active and inactive calls. The calls are words filed in the database; no cut-off is given here.
# Experiments:
# [1] = Inhibition of NLRP3 inflammasome activation in LPS/ATP-stimulated male C57BL/6J mouse BMDM cells assessed as inhibition of IL-1beta secretion […] for 4 hrs followed by compound administration for 30 mins and measured after 1 hrs of ATP addition by ELISA; format: cell-based
# [2] = Cytotoxicity against male C57BL/6J mouse BMDM cells; format: functional
# [3] = Inhibition of NLRP3 inflammasome activation in human THP-1 cells assessed as inhibition of IL-1beta release; format: cell-based
# Mus musculus [4] = assay: Effect on TNF-alpha level in serum of LPS/ATP-induced acute peritonitis male C57BL/6J mouse model at 20 mg/kg, po preadministered with compound for 1 hrs followed by LPS addition for 2 hrs and measured 12 hrs post ATP administration by ELISA; format: functional, organism-based; settings: time 13.0 hrs
# Mus musculus [5] = assay: Antidiabetic activity in HFD-fed STZ-induced diabetic kidney disease male C57BL/6J mouse model assessed as improvement of glucose tolerance at 20 mg/kg fed with high fat diet for 4 weeks followed by STZ administration for 5 days further administered with compound via gavage for 6 weeks and measured after 120 mins of glucose administration by OGTT; format: functional, organism-based; settings: time 60600.0 min
# Mus musculus [6] = assay: Antidiabetic activity in HFD-fed STZ-induced diabetic kidney disease male C57BL/6J mouse model assessed as reduction in macrophage infiltration in kidney at 20 mg/kg fed with high fat diet for 4 weeks followed by STZ administration for 5 days and measured 6 weeks post compound administration via gavage by F4/80 immunostaining based analysis; format: functional, organism-based
# Mus musculus [7] = assay: Anti-colitis activity in DSS-induced acute ulcerative colitis male C57BL/6J mouse model assessed as reduction in body weight loss at 5 mg/kg, po preadministered with DSS for 7 days followed by 3 days of drinking water and measured after 10 days of compound administration; format: functional, organism-based; settings: time 10.0 day
# Mus musculus [8] = assay: Anti-colitis activity in DSS-induced acute ulcerative colitis male C57BL/6J mouse model assessed as improvement in stool consistency at 5 mg/kg, po preadministered with DSS for 7 days followed by 3 days of drinking water and measured after 10 days of compound administration; format: functional, organism-based; settings: time 10.0 day
# Mus musculus [9] = assay: Anti-colitis activity in DSS-induced acute ulcerative colitis male C57BL/6J mouse model assessed as reduction in fecal bleeding at 5 mg/kg, po preadministered with DSS for 7 days followed by 3 days of drinking water and measured after 10 days of compound administration; format: functional, organism-based; settings: time 10.0 day
# Mus musculus [10] = assay: Anti-colitis activity in DSS-induced acute ulcerative colitis male C57BL/6J mouse model assessed as decrease in disease activity index score at 5 mg/kg, po preadministered with DSS for 7 days followed by 3 days of drinking water and measured after 10 days of compound administration; format: functional, organism-based; settings: time 10.0 day
# Mus musculus [11] = assay: Anti-colitis activity in DSS-induced acute ulcerative colitis male C57BL/6J mouse model assessed as increase in colon length at 5 mg/kg, po preadministered with DSS for 7 days followed by 3 days of drinking water and measured after 10 days of compound administration; format: functional, organism-based; settings: time 10.0 day
# [12] = target: NACHT, LRR and PYD domains-containing protein 3 (Mus musculus) (UniProt Q8R4B8); settings: C57BL/6J, dose 20.0 mg/kg, route po, time 13.0 hrs
# Sequence of NACHT, LRR and PYD domains-containing protein 3 (Mus musculus) (Q8R4B8 whole entry, the tested form may be a part): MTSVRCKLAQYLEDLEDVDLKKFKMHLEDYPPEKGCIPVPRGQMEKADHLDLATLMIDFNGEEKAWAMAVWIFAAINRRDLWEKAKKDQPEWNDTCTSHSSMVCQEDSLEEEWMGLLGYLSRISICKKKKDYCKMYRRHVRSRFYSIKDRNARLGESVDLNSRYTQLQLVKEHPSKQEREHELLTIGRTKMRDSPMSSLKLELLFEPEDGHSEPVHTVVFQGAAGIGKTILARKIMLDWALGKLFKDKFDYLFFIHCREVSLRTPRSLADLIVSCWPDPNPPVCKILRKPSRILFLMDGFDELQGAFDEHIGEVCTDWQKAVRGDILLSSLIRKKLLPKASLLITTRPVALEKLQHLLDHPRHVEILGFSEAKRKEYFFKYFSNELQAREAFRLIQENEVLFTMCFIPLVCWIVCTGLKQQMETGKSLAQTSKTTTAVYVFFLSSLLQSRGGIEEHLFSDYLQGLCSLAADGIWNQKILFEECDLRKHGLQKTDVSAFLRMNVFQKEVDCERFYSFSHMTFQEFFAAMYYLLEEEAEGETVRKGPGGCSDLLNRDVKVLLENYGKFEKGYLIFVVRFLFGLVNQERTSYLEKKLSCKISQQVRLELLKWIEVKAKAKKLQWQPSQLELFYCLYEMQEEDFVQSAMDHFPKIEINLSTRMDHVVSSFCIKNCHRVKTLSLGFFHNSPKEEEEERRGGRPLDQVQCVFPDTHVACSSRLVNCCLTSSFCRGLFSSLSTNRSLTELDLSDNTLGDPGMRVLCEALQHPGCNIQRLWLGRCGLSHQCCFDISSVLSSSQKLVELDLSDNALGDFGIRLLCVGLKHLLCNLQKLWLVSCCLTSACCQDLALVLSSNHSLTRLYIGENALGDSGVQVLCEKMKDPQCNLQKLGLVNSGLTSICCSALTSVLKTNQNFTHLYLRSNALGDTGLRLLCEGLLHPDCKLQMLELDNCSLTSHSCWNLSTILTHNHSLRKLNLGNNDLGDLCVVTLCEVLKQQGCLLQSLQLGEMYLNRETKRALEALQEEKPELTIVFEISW
IC50 [1],SMILES,CC50 [2],also measured
2.03 µM,O=C(Nc1c2c(cc3c1CCC3)CCC2)NS(=O)(=O)N1CCNC2(CC2)C1,> 100 µM,
2.99 µM,CN1CCC(n2cc(NS(=O)(=O)NC(=O)Nc3c4c(cc5c3CCC5)CCC4)cn2)CC1,> 100 µM,
0.544 µM,CN(C1CCOCC1)S(=O)(=O)NC(=O)Nc1c2c(cc3c1CCC3)CCC2,> 100 µM,
0.724 µM,CCN1CCC(N(C)S(=O)(=O)NC(=O)Nc2c3c(cc4c2CCC4)CCC3)CC1,> 100 µM,
0.122 µM,CN1CCC(N(C)S(=O)(=O)NC(=O)Nc2c3c(cc4c2CCC4)CCC3)C1 (centres undefined),> 100 µM,
0.979 µM,CN1CCC(NS(=O)(=O)NC(=O)Nc2c3c(cc4c2CCC4)CCC3)CC1,> 100 µM,
0.317 µM,O=C(Nc1c2c(cc3c1CCC3)CCC2)NS(=O)(=O)N1CCc2ccccc2C1,> 100 µM,
5.37 µM,CC(=O)N1CCC(NS(=O)(=O)NC(=O)Nc2c3c(cc4c2CCC4)CCC3)CC1,> 100 µM,
1.95 µM,O=C(Nc1c2c(cc3c1CCC3)CCC2)NS(=O)(=O)NC1CCN(C2CC2)CC1,> 100 µM,
1.12 µM,O=C(Nc1c2c(cc3c1CCC3)CCC2)NS(=O)(=O)N1CCC(F)(F)CC1,> 100 µM,
2.9 µM,CC(C)N1CCC(NS(=O)(=O)NC(=O)Nc2c3c(cc4c2CCC4)CCC3)CC1,> 100 µM,
0.155 µM,Cn1cc(NS(=O)(=O)NC(=O)Nc2c3c(cc4c2CCC4)CCC3)cn1,> 100 µM,

# The next lines start with the molecule.
SMILES,IC50 [1],CC50 [2],also measured
CC(C)(O)c1coc(S(=O)(=O)NC(=O)Nc2ccccc2C(=O)N2CCOCC2)c1,> 50 µM,> 100 µM,
CN1CCC(N(C)S(=O)(=O)NC(=O)Nc2cccc3c2oc2ccccc23)CC1,> 50 µM,> 100 µM,
CC(C)(O)c1coc(S(=O)(=O)NC(=O)Nc2ccccc2Oc2ccccc2)c1,> 50 µM,> 100 µM,
CN1CCC(N(C)S(=O)(=O)NC(=O)Nc2cccc3c2C(=O)c2ccccc2-3)CC1,> 50 µM,> 100 µM,
CC(C)(O)c1coc(S(=O)(=O)NC(=O)Nc2ccccc2C(=O)N2CCCC2)c1,19.1 µM,> 100 µM,
C=C(c1ccccc1)c1ccccc1NC(=O)NS(=O)(=O)c1cc(C(C)(C)O)co1,19.8 µM,> 100 µM,
CC(C)(O)c1coc(S(=O)(=O)NC(=O)Nc2ccccc2Sc2ccccc2)c1,35.1 µM,> 100 µM,
CN(C)C(=O)c1ccccc1NC(=O)NS(=O)(=O)c1cc(C(C)(C)O)co1,> 50 µM,> 100 µM,
CN(C1CCN(Cc2ccccc2)CC1)S(=O)(=O)NC(=O)Nc1c2c(cc3c1CCC3)CCC2,> 50 µM,> 100 µM,
CC(C)(O)c1coc(S(=O)(=O)NC(=O)Nc2ccccc2C(=O)c2ccccc2)c1,3.82 µM,> 100 µM,
CC(C)(O)c1coc(S(=O)(=O)NC(=O)Nc2ccccc2C(=O)c2ccccn2)c1,> 50 µM,> 100 µM,
Cc1ccc2cccc(NC(=O)NS(=O)(=O)N(C)C3CCN(C)CC3)c2n1,> 50 µM,> 100 µM,
CN1CCC(N(C)S(=O)(=O)NC(=O)Nc2ccccc2C(=O)c2ccccc2)CC1,18 µM,> 100 µM,
CN(c1ccncc1)S(=O)(=O)NC(=O)Nc1c2c(cc3c1CCC3)CCC2,4.43 µM,> 100 µM,
CN1CCC(N(C)S(=O)(=O)NC(=O)Nc2ccc3c(c2)Cc2ccccc2-3)CC1,> 50 µM,> 100 µM,
CC(C)(O)c1coc(S(=O)(=O)NC(=O)Nc2ccccc2Cc2ccccc2)c1,> 50 µM,> 100 µM,
CC(C)(O)c1coc(S(=O)(=O)NC(=O)Nc2c3c(cc4c2CCC4)CCC3)c1,0.036 µM,,IC50 [3]: 0.058 µM; Activity (Mus musculus [4]): inactive; Activity (Mus musculus [5]): inactive; Activity (Mus musculus [6]): inactive; Activity (Mus musculus [7]): Active; Significant Difference Not Observed; Activity (Mus musculus [8]): Active; Activity (Mus musculus [9]): Active; Activity (Mus musculus [10]): Active; Activity (Mus musculus [11]): inactive; inhibition [12]: Active
O=C(Nc1c2c(cc3c1CCC3)CCC2)NS(=O)(=O)Nc1cnn(C2CCOCC2)c1,0.139 µM,> 100 µM,
CN1CCC(N(C)S(=O)(=O)NC(=O)Nc2cc(C(C)(C)C)ccc2-c2ccc(C(C)(C)C)cc2)CC1,> 50 µM,10.2 µM,
O=C(Nc1c2c(cc3c1CCC3)CCC2)NS(=O)(=O)N1CCN2CCC1CC2,0.185 µM,> 100 µM,
CC(C)(O)c1coc(S(=O)(=O)NC(=O)Nc2ccccc2C(=O)c2ccoc2)c1,> 50 µM,> 100 µM,
CN1CCC(N(C)S(=O)(=O)NC(=O)Nc2cccc3c2NC(=O)C3)CC1,> 50 µM,> 100 µM,
CN1CCC(N(C)S(=O)(=O)NC(=O)Nc2cccc3c2OCO3)CC1,> 50 µM,> 100 µM,
